Assay results: paper PMC6691785, “Computer-aided design and synthesis of 3-carbonyl-5-phenyl-1H-pyrazole as highly selective and potent BRAFV600E and CRAF inhibitor” (Journal of Enzyme Inhibition and Medicinal Chemistry, 2019)

Experiments:
BRAFV600E [1] = biological target: T1, BRAFV600E (Homo sapiens, UniProt P15056, V600E); settings: selectivity over BRAFWT; cited from earlier work
CRAF [2] = biological target: T2, CRAF (Homo sapiens, UniProt P04049); settings: selectivity over BRAFWT; cited from earlier work
T2 sequence (P04049 whole entry): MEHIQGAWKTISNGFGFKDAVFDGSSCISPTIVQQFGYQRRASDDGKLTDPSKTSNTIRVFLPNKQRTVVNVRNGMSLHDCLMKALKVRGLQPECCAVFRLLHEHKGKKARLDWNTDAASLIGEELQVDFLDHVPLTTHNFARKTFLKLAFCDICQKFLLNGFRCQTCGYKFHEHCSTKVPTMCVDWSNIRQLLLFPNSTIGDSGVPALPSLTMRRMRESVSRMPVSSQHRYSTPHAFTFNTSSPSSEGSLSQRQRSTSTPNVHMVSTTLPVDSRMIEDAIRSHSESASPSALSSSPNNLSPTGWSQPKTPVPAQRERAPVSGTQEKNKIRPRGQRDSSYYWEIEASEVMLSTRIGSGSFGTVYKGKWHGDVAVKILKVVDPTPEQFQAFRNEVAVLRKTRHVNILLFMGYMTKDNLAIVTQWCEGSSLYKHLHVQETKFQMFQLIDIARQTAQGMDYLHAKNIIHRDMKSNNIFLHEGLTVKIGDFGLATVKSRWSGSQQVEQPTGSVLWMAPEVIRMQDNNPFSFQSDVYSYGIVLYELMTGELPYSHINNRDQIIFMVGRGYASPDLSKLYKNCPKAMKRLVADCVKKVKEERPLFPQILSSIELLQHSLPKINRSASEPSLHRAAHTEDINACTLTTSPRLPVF

BRAFWT = BRAFWT (Homo sapiens, UniProt P15056); assay: Enzymatic activity (IC50) on BRAFWT; type: biochemical
Sequence of BRAFWT (P15056 whole entry): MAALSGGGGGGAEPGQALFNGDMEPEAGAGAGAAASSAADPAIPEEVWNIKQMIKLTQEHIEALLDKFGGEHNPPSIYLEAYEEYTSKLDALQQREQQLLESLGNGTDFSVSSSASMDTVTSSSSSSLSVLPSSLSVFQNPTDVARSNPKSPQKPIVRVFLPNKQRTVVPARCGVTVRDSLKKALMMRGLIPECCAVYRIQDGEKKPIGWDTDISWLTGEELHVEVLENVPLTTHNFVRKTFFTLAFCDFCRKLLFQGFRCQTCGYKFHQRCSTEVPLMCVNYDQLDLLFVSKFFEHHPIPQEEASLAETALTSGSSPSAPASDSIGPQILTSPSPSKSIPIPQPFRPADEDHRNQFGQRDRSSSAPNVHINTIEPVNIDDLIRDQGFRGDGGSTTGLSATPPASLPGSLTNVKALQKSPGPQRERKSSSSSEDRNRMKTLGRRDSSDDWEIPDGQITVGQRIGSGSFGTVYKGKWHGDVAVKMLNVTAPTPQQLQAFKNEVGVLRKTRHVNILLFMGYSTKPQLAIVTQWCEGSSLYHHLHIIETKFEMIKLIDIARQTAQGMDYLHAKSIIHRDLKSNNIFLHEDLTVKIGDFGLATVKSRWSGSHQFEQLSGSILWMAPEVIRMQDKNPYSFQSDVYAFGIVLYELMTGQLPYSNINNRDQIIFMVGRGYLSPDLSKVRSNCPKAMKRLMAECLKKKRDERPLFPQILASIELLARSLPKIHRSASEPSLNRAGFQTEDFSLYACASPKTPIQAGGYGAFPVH
Procedure: (§1) Next, we used kinase panel screening in duplicate for compound 23b over 35 different kinases at a single-dose concentration of 10 μM (Table 2). The compound was indeed a selective BRAFV600E and CRAF inhibitor with an excellent selectivity profile. This compound has an inhibitory activity of more than 90% on CRAF and BRAF V600E at a concentration of 10 μM; the inhibition activity was less than 20% for most other kinases, including wild-type BRAF. We further determined the IC50 value of 23b on wild-type BRAF to be over than 20 μM, where we could confirm selectivity (Table 3). In order to investigate the effect of 23b in living cells, the human colon cancer cell line […] expressing wild-type BRAF and the malignant melanoma A375 cell line expressing BRAFV600E were treated with increasing concentrations of 23b.

BRAFV600E [3] = biological target: T1, BRAFV600E; assay: Enzymatic activity (IC50) on BRAFV600E; type: biochemical; settings: for IC50: enzymatic activity; for times more potent for BRAFV600E than the previous series: versus N-(3-(3-alkyl-1H-pyrazol-5-yl)phenyl)-aryl amide derivatives
Procedure: (§2) The IC50 values for BRAFV600E and CRAF were measured for each of the 12 compounds synthesised (Table 1). The compounds were all designed as 1, 3, 5-substituted benzyl group hydrophobic tails to maintain the selectivity of the previous series.

CRAF [4] = biological target: T2, CRAF; assay: Enzymatic activity (IC50) on CRAF; type: biochemical; settings: for IC50: enzymatic activity
Procedure: as §2

35 different kinases = assay: Kinase panel screening, single dose 10 μM, other kinases of the panel; type: biochemical; settings: in duplicate, most other kinases of the 35-kinase panel
Procedure: as §1
(§3) We designed and synthesized selective, efficacious inhibitors for BRAFV600E and CRAF by in silico modeling using the Maestro programme.[20] […] We attempted kinase panel screening for compound 23b over 35 different kinases at a single-dose concentration of 10 μM (Table 2, performed in duplicate). The compound was, indeed, a selective BRAFV600E and CRAF inhibitor with an excellent selectivity profile. This compound has an inhibitory activity of 99% on BRAF V600E and CRAF at this concentration. The inhibition activity was less than 20% in most other kinases, including BRAFWT.

BRAFV600E [5] = biological target: T1, BRAFV600E; assay: Kinase panel screening, single dose 10 μM, BRAF V600E; type: biochemical; settings: in duplicate, read-out: inhibitory activity on BRAF V600E
Procedure: as §1, §3

wild-type BRAF = wild-type BRAF (Homo sapiens, UniProt P15056); assay: Kinase panel screening, single dose 10 μM, wild-type BRAF; type: biochemical; settings: in duplicate
Sequence of wild-type BRAF (P15056 whole entry): as above
Procedure: as §1, §3

[6] = system: malignant melanoma A375 cell line expressing BRAFV600E; assay: MTT assay, A375 cells; type: cell-based; settings: Homo sapiens, A-375
Procedure: as §1

CRAF [7] = biological target: T2, CRAF; assay: Kinase panel screening, single dose 10 μM, CRAF; type: biochemical; settings: in duplicate, read-out: inhibitory activity on CRAF
Procedure: as §1, §3

[8] = system: human colon cancer cell line SW620 expressing wild-type BRAF; assay: MTT assay, SW620 cells; type: cell-based
Procedure: as §1

T1 sequence (P15056 whole entry V600E): as the sequence (P15056 whole entry) above, with V600E counted along it

IC50 (BRAFWT) [nM] | IC50 (BRAFV600E [3]) [nM] | IC50 (CRAF [4]) [nM] | SMILES | also measured
 |  |  | CC(C)c1cc(-c2cccc(NC(=O)c3cc(N4CCN(C)CC4)cc(C(F)(F)F)c3)c2)[nH]n1 [Compound 2, N-(3–(3-alkyl-1H-pyrazol-5-yl)phenyl)-aryl amide] | times more potent on BRAFV600E than on BRAFWT (BRAFV600E [1]): 20 times; times more potent on CRAF than on BRAFWT (CRAF [2]): 126 times
16400 | 2800 | 1500 | O=C(Nc1cccc(-c2cc(C(=O)NCCN3CCOCC3)[nH]n2)c1)c1cc(N2CCOCC2)cc(C(F)(F)F)c1 [Compound 20a] | 
13100 | 980 | 590 | Cc1nccn1-c1cc(C(=O)Nc2cccc(-c3cc(C(=O)NCCN4CCOCC4)[nH]n3)c2)cc(C(F)(F)F)c1 [Compound 20b] | 
14700 | 910 | 580 | Cc1cn(-c2cc(C(=O)Nc3cccc(-c4cc(C(=O)NCCN5CCOCC5)[nH]n4)c3)cc(C(F)(F)F)c2)cn1 [Compound 20c] | 
> 20000 | 2700 | 1150 | CN1CCN(c2cc(C(=O)Nc3cccc(-c4cc(C(=O)NCCN5CCOCC5)[nH]n4)c3)cc(C(F)(F)F)c2)CC1 [Compound 20d] | 
> 20000 | 2090 | 1600 | O=C(Nc1cccc(-c2cc(C(=O)NCCN3CCNCC3)[nH]n2)c1)c1cc(N2CCOCC2)cc(C(F)(F)F)c1 [Compound 22a] | 
12900 | 1260 | 830 | Cc1nccn1-c1cc(C(=O)Nc2cccc(-c3cc(C(=O)NCCN4CCNCC4)[nH]n3)c2)cc(C(F)(F)F)c1 [Compound 22b] | 
 | 1510 | 580 | Cc1cn(-c2cc(C(=O)Nc3cccc(-c4cc(C(=O)NCCN5CCNCC5)[nH]n4)c3)cc(C(F)(F)F)c2)cn1 [Compound 22c] | 
> 20000 | 680 | 130 | O=C(Nc1cccc(-c2cc(C(=O)OCCN3CCOCC3)[nH]n2)c1)c1cc(N2CCOCC2)cc(C(F)(F)F)c1 [Compound 23a] | 
> 20000 | 330 | 60 | Cc1cn(-c2cc(C(=O)Nc3cccc(-c4cc(C(=O)OCCN5CCOCC5)[nH]n4)c3)cc(C(F)(F)F)c2)cn1 [Compound 23c] | 
> 20000 | 680 | 160 | CN1CCN(c2cc(C(=O)Nc3cccc(-c4cc(C(=O)OCCN5CCOCC5)[nH]n4)c3)cc(C(F)(F)F)c2)CC1 [Compound 23d] | 
> 20000 | 400 | 210 | O=C(Nc1cccc(-c2cc(C(=O)OCCN3CCCCC3)[nH]n2)c1)c1cc(N2CCOCC2)cc(C(F)(F)F)c1 [Compound 24] | 

SMILES | IC50 (BRAFWT) [nM] | IC50 (BRAFV600E [3]) [nM] | IC50 (CRAF [4]) [nM] | also measured
Cc1nccn1-c1cc(C(=O)Nc2cccc(-c3cc(C(=O)OCCN4CCOCC4)[nH]n3)c2)cc(C(F)(F)F)c1 [Compound 23b] | > 20000 | 100 | 20 | inhibition activity for most other kinases (35 different kinases): less than 20%; inhibition at 10 µM (BRAFV600E [5]): > 90%; inhibition at 10 µM (wild-type BRAF): < 20%; GI50 [6]: 70 nM; inhibition at 10 µM (CRAF [7]): > 90%; times more potent for BRAFV600E than the previous series (BRAFV600E [3]): 7 times; times more potent for BRAFV600E than the previous series (BRAFV600E [3]; listed as 23 b): seven; GI50 ([8]; Homo sapiens, SW-620, SW620 cells expressing BRAFWT): > 10000 nM; inhibition of the proliferation ([8]; increasing concentrations, SW620 cells expressing BRAFWT): not in the cells expressing BRAFWT; times more potent for CRAF than the previous series (CRAF [4]; versus N-(3-(3-alkyl-1H-pyrazol-5-yl)phenyl)-aryl amide derivatives): 5 times
